# Key:
# Assay type in all cases: cell-based
# [1] = system: MucilAir nasal human 3D epithelial model; assay: Cilia beating frequency (CBF), Example 1; details: T96h, OC43 infected inserts; Mock 8.5 Hz
# Protocol: Cilia beating frequency (CBF) is a parameter that indicates if the nasal epithelia is healthy and carrying out its physiologic function of mucus transport. CBF was measured by a dedicated setup for this purpose. The system consists of three parts: a Sony XCD V60 camera connected to an Olympus BX51 microscope, a PCI card and a specific package of software. The cilia beating frequency is expressed in Hz. […] CBF was then calculated using relevant software. It should be pointed out that CBF values may be subject to fluctuations due to parameters such as temperature, mucus viscosity or liquid applied on the apical surface of the cell model and observed values should be compared to a control condition in each experiment.
# At T96h, the ciliary beating frequency (CBF) and the mucociliary clearance (MCC) of all inserts were measured. 200 µl of culture medium was added apically to all inserts and inserts were let sit for 20 minutes at 34° C. During this time, TEER of all inserts was measured. This apical washing liquid was then removed and was stored at -80° C. until the virus copy number was determined. The basal culture medium was removed and stored. 50 µl of the basal culture medium of all inserts was used for the LDH assay.
# [2] = system: human coronavirus OC43; assay: OC43 viral genome copy number in MucilAir nasal epithelium, Example 1; details: for Mean viral genome copy number, Log 10 ((Copies/ml) + 1): apical wash, 0.00 = below detection limit
# [3] = system: MucilAir nasal human 3D epithelial model; assay: Trans-epithelial electronic resistance (TEER), Example 1; details: all measured timepoints
# Description: Trans-epithelial electronic resistance (TEER) is a dynamic parameter that reflects the state of epithelia and is typically between 200 to 600 Ω.cm^2. An increase of the TEER value reflects a blockage of the ion channel activities of the MucilAir cell culture. A notable decrease of the TEER values, but with the value still above 100 Ω.cm^2 can be observed in certain cases and indicates an activation of the ion channels. Disruption of cellular junction or holes in the epithelia result in TEER values below 100 Ω.cm^2. When an epithelium is damaged, a decrease of TEER would be associated with an increase of LDH release or a decrease of the cell viability. In this example, TEER was measured after addition of 200 µl of culture medium to the apical compartment of the inserts (i.e. during the washing step). TEER was measured with an EVOMX volt-ohm-meter (World Precision Instruments UK, Stevenage) for each condition. Resistance values (Q) were converted to TEER (Ω.cm^2) using the following formula: TEER (Ω.cm^2) = (resistance value (Ω) - 100 (Ω)) x 0.33 (cm^2), where 100 Q is the resistance of the membrane and 0.33 cm^2 is the total surface of the epithelium in one insert. The TEER measurement was conducted as follows: 200µl of culture medium was added on apical surface of each insert. The EVOMX was turned on. […] Then, the resistance (Q) was measured with the EVOMX in the Ohms measurement function.
Compound,Cilia beating frequency (CBF) [1],"Mean viral genome copy number, Log 10 ((Copies/ml) + 1) ([2]; T4h)","Mean viral genome copy number, Log 10 ((Copies/ml) + 1) ([2]; T24h)","Mean viral genome copy number, Log 10 ((Copies/ml) + 1) ([2]; T48h)","Mean viral genome copy number, Log 10 ((Copies/ml) + 1) ([2]; T72h)","Mean viral genome copy number, Log 10 ((Copies/ml) + 1) ([2]; T96h)",Apical genome copy number in comparison to negative control ([2]; each timepoint T24h - T96h),TEER [3]
"N#C[C@@]1(c2ccc3c(N)ncnn23)O[C@H](CO)[C@@H](O)[C@H]1O [Positive antiviral control, GS-441524]",about 15 Hz,0.00 Log 10 ((Copies/ml) + 1),0.00 Log 10 ((Copies/ml) + 1),0.00 Log 10 ((Copies/ml) + 1),5.21 Log 10 ((Copies/ml) + 1),4.69 Log 10 ((Copies/ml) + 1),statistically significantly reduced,
Polyethylene glycol tert-octylphenyl ether [positive controls for cytotoxicity],,,,,,,,below 100 Ω.cm^2

# — patent US20230270802A1, “ANTIVIRAL PHARMACEUTICAL COMPOSITION” (GSK CONSUMER HEALTHCARE SARL, priority 2020, published 2023)
